According to US20150125425A1, “TREATMENT OF LIVER CANCER” (priority 2012, published 2015):

How the values were obtained:
HuH7 xenografts = experiment: HSV1716 in combination with sorafenib in vivo in subcutaneous flank HuH7 xenografts; parameters: species or system nude mice
Protocol: Female 6-8 week old athymic nude mice (Charles River Labs, UK) were maintained under specific pathogen free conditions. Actively growing HuH7 cells were harvested and, after re-suspension in PBS, 1×10^6 cells per mouse were injected subcutaneously. Treatments were started when tumours reached 5 mm in diameter. Mice were inspected daily, when tumour diameters reached 15 mm they were sacrificed and the tumour xenograft removed for viral extraction. The viral load in tumours and various organs was assessed by plaque forming assay on Vero cells. Extracted intact tumours/organs were frozen immediately at −70° C. and, after thawing, the tissues were mechanically homogenized in a Retsch homogenizer in 1 ml PBS prior to titration.
Sorafenib for IP injections was obtained from Selleckchem UK, (S1040), and was reported as 100% pure. The dose was 10 mg/kg equivalent to 10 μg/g or 250 μg/mouse (25 g). The 0.1 ml intraperitoneal dose therefore required 250 μg/0.1 ml or 2.5 mg/ml. 50 mg sorafenib was dissolved in 0.5 ml DMSO and this was added to 19.5 ml PBS with 5% Tween80 and 5% PEG400 (both v/v). This is equivalent to c4 mM sorafenib. HSV1716gCluc which expresses luciferase from the HSV-1 gC promoter. The stock virus solution was 8×10^7 pfu/ml and 0.125 ml virus stock were added to 10 ml compound sodium lactate with 10% glycerol to give the injection solution at a titre of 1×10^6 pfu/ml. 0.1 ml injected it/mouse and is equivalent to 1×10^5 pfu.
In vivo combination with sorafenib and HSV1716 was analysed using the HuH7 subcutaneous xenograft HCC model in nude mice. Groups were—no treatment (n=10), sorafenib (n=6), HSV1716 (n=10), HSV1716 sorafenib (n=12). HSV1716gC-luc at 1×10^5 pfu was given on days 1, 3 and 9 and sorafenib at 10 mg/kg (Liu et al Cancer Res 2006; 66:11851-11858), was administered IP (Wang et al., Cancer Biol & Therapy 2011; 12:3, 229-238) every 2nd day from day 2 on 9 occasions. Virus was monitored by IVIS and tumour growth (FIG. 37) and survival (FIG. 38) were recorded.

HCC = conditions: monotherapy of HCC; cited from earlier work

## CNC(=O)c1cc(Oc2ccc(NC(=O)Nc3ccc(Cl)c(C(F)(F)F)c3)cc2)ccn1 [sorafenib, 4-[4-[[4-chloro-3-(trifluoromethyl)phenyl]carbamoylamino]phenoxy]-N-methyl-pyridine-2-carboxamide]
HuH7 xenografts; HuH7 xenografts (FIG. 37)
  xenograft growth: inhibited
HuH7 xenografts; HuH7 xenografts (FIG. 38)
  mouse survival: survived longer than controls
HuH7 xenografts; HuH7 xenografts (FIG. 38), virus 1×10^5 pfu days 1, 3, 9, sorafenib 10 mg/kg IP
  period in which no mice died: about 4 days
HCC
  prolongation of median survival and the time to progression: ~3 months
  reduction of the risk of death during year 1: 31%
